Here are results for seven compounds from ChEMBL document CHEMBL5465560, “Selectivity Literature for EUbOPEN Chemogenomic Library” (2024).

Assay [1] addresses TRAF2 and NCK-interacting protein kinase (Homo sapiens) (UniProt Q9UKE5). To be noted: at 10 µM.
The target in assay [2] is T1, Serine/threonine-protein kinase Nek9 (Homo sapiens) (UniProt Q8TD19).
T1 sequence (whole entry): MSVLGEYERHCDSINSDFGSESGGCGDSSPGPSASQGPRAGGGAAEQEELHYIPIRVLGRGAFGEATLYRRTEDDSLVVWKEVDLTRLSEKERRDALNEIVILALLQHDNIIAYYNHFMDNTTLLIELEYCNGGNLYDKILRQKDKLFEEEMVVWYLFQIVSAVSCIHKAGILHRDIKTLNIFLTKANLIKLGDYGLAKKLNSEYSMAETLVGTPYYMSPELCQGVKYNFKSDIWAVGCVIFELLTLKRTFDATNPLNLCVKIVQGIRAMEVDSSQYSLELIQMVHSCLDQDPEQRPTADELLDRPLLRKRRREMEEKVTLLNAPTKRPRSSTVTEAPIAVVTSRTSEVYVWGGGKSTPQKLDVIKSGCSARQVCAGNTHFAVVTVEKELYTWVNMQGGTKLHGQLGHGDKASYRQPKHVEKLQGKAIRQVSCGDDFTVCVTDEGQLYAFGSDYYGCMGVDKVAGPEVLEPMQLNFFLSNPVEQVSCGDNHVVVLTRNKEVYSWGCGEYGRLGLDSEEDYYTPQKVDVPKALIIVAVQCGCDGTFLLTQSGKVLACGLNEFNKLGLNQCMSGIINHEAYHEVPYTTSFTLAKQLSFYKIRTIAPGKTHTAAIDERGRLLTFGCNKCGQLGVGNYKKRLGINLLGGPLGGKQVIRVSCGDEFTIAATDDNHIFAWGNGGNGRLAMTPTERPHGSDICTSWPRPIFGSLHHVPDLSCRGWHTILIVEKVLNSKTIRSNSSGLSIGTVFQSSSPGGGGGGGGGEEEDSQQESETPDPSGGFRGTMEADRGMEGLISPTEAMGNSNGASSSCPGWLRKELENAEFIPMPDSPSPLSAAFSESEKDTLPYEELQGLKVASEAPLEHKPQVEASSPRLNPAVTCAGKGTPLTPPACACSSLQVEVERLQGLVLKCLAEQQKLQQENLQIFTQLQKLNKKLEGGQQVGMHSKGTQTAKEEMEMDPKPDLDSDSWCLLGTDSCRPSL
Put plainly: Selectivity interaction (KinomeScan (DiscoverX)) EUB0000695a NEK9. To be noted: at 100 nM.

In assay [3] the test system is Leucine-rich repeat serine/threonine-protein kinase 2 (Homo sapiens), Q5S007 [G2019S]. Put plainly: (§1) Selectivity interaction (KinomeScan (DiscoverX)) EUB0000695a LRRK2. To be noted: at 100 nM.
Assay [4] deals with Leucine-rich repeat serine/threonine-protein kinase 2 (Homo sapiens, UniProt Q5S007). Described as §1. To be noted: at 100 nM.
Assay [5] addresses Phosphatidylinositol 4-kinase alpha (Homo sapiens, UniProt P42356). Nature of the assay: Selectivity interaction (ActivX KiNativ screen (kinase selectivity in THP-1 cell lysates)) EUB0000639a PI4KA. The format is subcellular. To be noted: lysate.
Assay [6] concerns the target Vascular endothelial growth factor receptor 1 (Homo sapiens) (UniProt P17948). Nature of the assay: Selectivity interaction (ProQinase) EUB0000171b FLT1.
For assay [7], the system named is Mast/stem cell growth factor receptor Kit (Homo sapiens), P10721 [V559D,V654A]. Put plainly: (§2) Selectivity interaction (ProQinase) EUB0000171b KIT.
Assay [8] concerns Mast/stem cell growth factor receptor Kit (Homo sapiens), P10721 [V559D]. Described as §2.
Assay [9] concerns the target Mast/stem cell growth factor receptor Kit (Homo sapiens, UniProt P10721). Described as §2.
The test system of assay [10] is Mast/stem cell growth factor receptor Kit (Homo sapiens), P10721 [V654A]. Described as §2.
Assay [11] concerns Mast/stem cell growth factor receptor Kit (Homo sapiens), P10721 [V559D,T670I]. Described as §2.
Assay [12] has as its system Mast/stem cell growth factor receptor Kit (Homo sapiens), P10721 [D816H]. Described as §2.
For assay [13], the system named is Mast/stem cell growth factor receptor Kit (Homo sapiens), P10721 [A829P]. The assay is described as §2.
Assay [14] concerns Mast/stem cell growth factor receptor Kit (Homo sapiens), P10721 [T670I]. Described as §2.
Assay [15] has as its system Mast/stem cell growth factor receptor Kit (Homo sapiens), P10721 [V560G]. Described as §2.
The subject of assay [16] is Mast/stem cell growth factor receptor Kit (Homo sapiens), P10721 [D816V]. The assay is described as §2.
The target of assay [17] is T2, Serine/threonine-protein kinase RIO1 (Homo sapiens) (UniProt Q9BRS2).
T2 sequence (whole entry): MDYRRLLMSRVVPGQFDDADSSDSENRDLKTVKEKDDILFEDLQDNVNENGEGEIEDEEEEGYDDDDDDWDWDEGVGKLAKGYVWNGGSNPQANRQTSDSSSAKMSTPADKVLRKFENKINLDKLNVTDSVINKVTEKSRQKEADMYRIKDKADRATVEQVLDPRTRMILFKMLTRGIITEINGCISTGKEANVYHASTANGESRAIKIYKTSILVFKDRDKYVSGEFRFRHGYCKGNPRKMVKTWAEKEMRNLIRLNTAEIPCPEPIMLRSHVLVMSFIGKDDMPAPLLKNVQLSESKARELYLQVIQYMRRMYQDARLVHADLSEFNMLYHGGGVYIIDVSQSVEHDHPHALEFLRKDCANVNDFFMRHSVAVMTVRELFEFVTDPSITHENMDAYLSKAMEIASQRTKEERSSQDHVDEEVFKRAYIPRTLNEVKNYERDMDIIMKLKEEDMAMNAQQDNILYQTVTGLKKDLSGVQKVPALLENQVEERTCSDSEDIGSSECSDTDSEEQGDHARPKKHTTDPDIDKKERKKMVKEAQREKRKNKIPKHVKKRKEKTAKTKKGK
Nature of the assay: Selectivity interaction (KinomeScan (DiscoverX)) EUB0001049a RIOK1. To be noted: at 1 µM.

In assay [18] the target is cAMP-dependent protein kinase catalytic subunit beta (Homo sapiens) (UniProt P22694). Nature of the assay: Selectivity interaction (KinomeScan (DiscoverX)) EUB0000655a PRKACB. To be noted: at 10 µM.
In assay [19] the target is Transcription initiation factor TFIID subunit 1-like (Homo sapiens) (UniProt Q8IZX4). Put plainly: Selectivity interaction (Bromodomain panel (DSF asssay)) EUB0000270b TAF1L.

Phosphatidylinositol 4-kinase alpha, sequence (P42356 whole entry, looked up): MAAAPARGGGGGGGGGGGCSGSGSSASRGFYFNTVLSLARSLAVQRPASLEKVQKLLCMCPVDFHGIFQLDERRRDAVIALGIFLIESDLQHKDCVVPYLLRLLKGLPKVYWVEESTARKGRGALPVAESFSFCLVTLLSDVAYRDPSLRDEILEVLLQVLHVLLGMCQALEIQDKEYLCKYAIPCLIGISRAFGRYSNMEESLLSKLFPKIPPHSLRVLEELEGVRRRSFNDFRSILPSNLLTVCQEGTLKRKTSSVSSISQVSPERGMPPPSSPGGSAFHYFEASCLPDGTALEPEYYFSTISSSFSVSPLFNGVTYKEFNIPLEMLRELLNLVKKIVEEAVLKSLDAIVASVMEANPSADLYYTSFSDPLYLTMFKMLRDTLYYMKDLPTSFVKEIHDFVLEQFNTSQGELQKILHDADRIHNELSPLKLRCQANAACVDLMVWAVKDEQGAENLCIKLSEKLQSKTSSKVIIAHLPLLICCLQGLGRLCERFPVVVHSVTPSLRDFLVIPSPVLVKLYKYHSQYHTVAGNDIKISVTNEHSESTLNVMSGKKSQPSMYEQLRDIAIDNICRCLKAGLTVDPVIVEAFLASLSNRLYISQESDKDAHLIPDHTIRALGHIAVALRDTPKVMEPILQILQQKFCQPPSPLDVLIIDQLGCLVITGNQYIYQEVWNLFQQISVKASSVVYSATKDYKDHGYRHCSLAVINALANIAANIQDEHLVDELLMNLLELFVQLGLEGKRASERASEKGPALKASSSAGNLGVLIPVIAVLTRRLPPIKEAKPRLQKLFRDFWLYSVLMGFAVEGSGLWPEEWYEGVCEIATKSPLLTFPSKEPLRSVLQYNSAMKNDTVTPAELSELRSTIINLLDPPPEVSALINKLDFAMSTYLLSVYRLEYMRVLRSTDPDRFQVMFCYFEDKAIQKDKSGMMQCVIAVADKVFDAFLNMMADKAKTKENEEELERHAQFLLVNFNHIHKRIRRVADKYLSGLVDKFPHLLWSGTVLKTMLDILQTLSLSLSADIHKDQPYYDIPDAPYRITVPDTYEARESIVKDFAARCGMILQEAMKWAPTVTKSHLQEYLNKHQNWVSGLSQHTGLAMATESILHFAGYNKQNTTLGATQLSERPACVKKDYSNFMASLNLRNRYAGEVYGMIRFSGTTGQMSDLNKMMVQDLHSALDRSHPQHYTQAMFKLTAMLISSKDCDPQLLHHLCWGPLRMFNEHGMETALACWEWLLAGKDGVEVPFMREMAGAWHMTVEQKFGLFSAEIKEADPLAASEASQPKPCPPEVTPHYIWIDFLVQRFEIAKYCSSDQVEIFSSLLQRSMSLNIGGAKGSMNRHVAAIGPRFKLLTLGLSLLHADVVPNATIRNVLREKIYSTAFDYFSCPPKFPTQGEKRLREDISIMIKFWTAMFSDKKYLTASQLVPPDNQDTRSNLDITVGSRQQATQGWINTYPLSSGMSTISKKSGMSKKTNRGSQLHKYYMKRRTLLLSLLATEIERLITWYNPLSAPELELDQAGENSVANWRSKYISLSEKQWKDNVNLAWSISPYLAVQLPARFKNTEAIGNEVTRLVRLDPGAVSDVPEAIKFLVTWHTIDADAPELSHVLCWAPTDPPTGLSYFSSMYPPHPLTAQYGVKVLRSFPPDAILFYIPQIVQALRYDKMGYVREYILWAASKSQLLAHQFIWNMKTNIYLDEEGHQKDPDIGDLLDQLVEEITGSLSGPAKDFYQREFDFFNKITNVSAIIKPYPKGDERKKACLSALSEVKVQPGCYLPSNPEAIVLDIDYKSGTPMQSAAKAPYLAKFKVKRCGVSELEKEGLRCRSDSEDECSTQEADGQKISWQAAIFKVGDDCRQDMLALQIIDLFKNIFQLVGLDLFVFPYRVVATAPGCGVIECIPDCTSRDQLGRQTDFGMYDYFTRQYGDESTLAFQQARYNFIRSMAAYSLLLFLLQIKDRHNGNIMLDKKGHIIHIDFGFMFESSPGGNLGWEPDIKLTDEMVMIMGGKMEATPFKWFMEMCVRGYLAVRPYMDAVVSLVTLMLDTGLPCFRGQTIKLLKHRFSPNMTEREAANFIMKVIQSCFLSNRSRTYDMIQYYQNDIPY
Mast/stem cell growth factor receptor Kit (Homo sapiens), P10721 [V559D,V654A], sequence (P10721 whole entry V559D/V654A): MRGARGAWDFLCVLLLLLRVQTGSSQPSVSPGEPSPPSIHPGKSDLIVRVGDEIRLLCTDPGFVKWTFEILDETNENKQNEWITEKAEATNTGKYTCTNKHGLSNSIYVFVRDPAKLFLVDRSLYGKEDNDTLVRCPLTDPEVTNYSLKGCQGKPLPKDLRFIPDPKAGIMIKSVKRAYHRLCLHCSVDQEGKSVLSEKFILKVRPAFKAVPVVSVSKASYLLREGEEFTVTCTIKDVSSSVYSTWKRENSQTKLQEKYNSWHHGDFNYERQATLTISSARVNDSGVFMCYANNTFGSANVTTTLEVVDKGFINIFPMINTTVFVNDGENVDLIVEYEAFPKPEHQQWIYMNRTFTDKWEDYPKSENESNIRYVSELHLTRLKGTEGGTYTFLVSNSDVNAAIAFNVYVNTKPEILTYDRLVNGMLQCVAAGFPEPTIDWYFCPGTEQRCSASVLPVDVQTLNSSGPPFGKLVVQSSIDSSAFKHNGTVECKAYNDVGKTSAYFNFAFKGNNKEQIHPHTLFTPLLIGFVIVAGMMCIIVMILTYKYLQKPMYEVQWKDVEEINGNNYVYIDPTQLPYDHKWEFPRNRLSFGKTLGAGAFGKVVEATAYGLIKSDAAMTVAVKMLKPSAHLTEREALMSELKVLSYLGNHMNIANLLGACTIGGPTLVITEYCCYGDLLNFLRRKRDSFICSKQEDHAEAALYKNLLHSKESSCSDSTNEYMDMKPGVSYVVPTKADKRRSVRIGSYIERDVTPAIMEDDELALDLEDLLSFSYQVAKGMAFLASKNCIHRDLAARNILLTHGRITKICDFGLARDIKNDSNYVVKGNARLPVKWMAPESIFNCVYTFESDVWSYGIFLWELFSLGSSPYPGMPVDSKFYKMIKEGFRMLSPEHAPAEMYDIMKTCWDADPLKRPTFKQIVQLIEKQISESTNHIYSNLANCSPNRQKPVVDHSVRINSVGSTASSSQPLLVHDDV
Mast/stem cell growth factor receptor Kit (Homo sapiens), P10721 [V654A], sequence (P10721 whole entry V654A): as the sequence (P10721 whole entry V559D/V654A) above, with D559V counted along it
Mast/stem cell growth factor receptor Kit (Homo sapiens), P10721 [T670I], sequence (P10721 whole entry T670I): as the sequence (P10721 whole entry V559D/V654A) above, with D559V, A654V, T670I counted along it

On to `CCN(CC)CCCCNc1ncc2cc(-c3cc(OC)cc(OC)c3)c(NC(=O)NC(C)(C)C)nc2n1`, for which the % of control in assay [1] was 100%.
Regarding `Cc1cc(F)c(C(=O)Nc2cccc(-c3nncn3C(C)C)n2)cc1-n1cnc(C2CC2)c1`, the % of control in assay [2] stood at 100%; in assay [3], 39%; in [4] it was 18%.
In the case of `CC[C@@H]1[C@H](F)C(=O)N[C@@H]1COc1nccc2cc(C(N)=O)c(OC)cc12` [ZIMLOVISERTIB], the % of inhibition in assay [5] (at 0.01 µM) was 7.2%; in assay [5] (at 0.04 µM) it was -7.1%; in assay [5] (at 0.2 µM), -24.4%; in [5] (at 1 µM), -6%; in [5] (at 5 µM) it was 38.5%.
On to `C=CC(=O)Nc1cccc(C(=O)Nc2ccc(Nc3cc(-c4[nH]c(SC)nc4C)ccn3)cc2)c1`, for which the % of control worked out at 84% in assay [6] (at 1 µM); 66% in assay [6] (at 5 µM); 94% in assay [7] (at 1 µM); 85% in [7] (at 5 µM); 102% in [8] (at 1 µM); 94% in assay [8] (at 5 µM). Further, the % of control in [9] (at 1 µM) stood at 98%; in assay [9] (at 5 µM), 101%; in assay [10] (at 1 µM) it was 103%; in [10] (at 5 µM), 80%; in assay [11] (at 1 µM), 96%; in [11] (at 5 µM) it was 77%. For the same compound, the % of control in [12] (at 1 µM) amounted to 91%; in assay [12] (at 5 µM), 66%; in [13] (at 1 µM), 68%; in assay [13] (at 5 µM), 75%; in assay [14] (at 1 µM) it was 107%; in assay [14] (at 5 µM), 98%. Further, the % of control in [15] (at 1 µM) was 95%; in assay [15] (at 5 µM) it was 67%; in assay [16] (at 1 µM), 87%; in [16] (at 5 µM), 55%.
`COc1cc(Nc2nc(C)cc(-c3cnn4nc(OC)ccc34)n2)cc(C(F)(F)F)c1` registered a % of control in [17] of 89%.
In the case of `CN(C)CCOc1ccc(-c2nc(-c3ccncc3)c(-c3ccc4c(c3)CC/C4=N\O)[nH]2)cc1`, the % of control in [18] worked out at 74%.
`Cc1cc(CN)cc(C)c1-c1ncn(C)c1-c1cncn1C`: the dTM in assay [19] was -1.79 K.
